Key:
C57BL/6 mice = test: Heart rate (ECG telemetry); type: in vivo; settings: single i.p. dose 10 mg/kg, monitored 10 h, conscious mice
Description: Heart rate. Male C57BL/6 mice age 4-6 months were surgically implanted with DSI TA-ETAF20 electrocardiographic telemetry devices (Data Sciences International, St. Paul, Minn.) in the mouse's abdominal cavity with biopotential leads sutured in place in the chest wall. The electrocardiographic data was collected and recorded using the PhysioTel telemetry system and Dataquest A.R.T 4.0 software (Data Sciences International). Mice were permitted two week-long recovery after surgery before initiation of baseline telemetry recordings. Heart rate was calculated from ECG data taken in the freely moving, conscious mice. Mice (n=3) were intraperitoneally treated with a single dose of vehicle (0.9% saline or 20% acidified DMSO in 0.9% saline), 10 mg/kg fingolimod, or 155 mg/kg FTY-k-PEG, and heart rate was continuously monitored for 10 h. Mice were rested for two weeks at which point the experiment was repeated with the mice assigned to the alternate group. […]
Avoided bradycardia and lymphopenia in vivo by FTY-k-PEG. To test whether FTY-k-PEG avoids bradycardia, C57BL/6 mice were surgically implanted with an electrocardiographic telemetry device and heart rate was calculated from ECG data taken in the freely moving, conscious mice after intraperitoneal (i.p.) injection of saline, fingolimod, or acid-cleavable FTY-k-PEG (see FIG. 10A). […]

[1] = system: circulating B and T lymphocytes; test: Lymphocyte sequestration; type: in vivo, mice; settings: 10 mg/kg (32 μmol/kg) i.p., blood 12 h post-injection, compared to saline or FTY-k-PEG
Procedure: Lymphocyte sequestration. Female 8-24 week old C57BL6 mice were intraperitoneally injected with vehicle (0.9% saline or 20% acidified DMSO in 0.9% saline), 10 mg/kg (32 μmol/kg) fingolimod, or 155 mg/kg FTY-k-PEG (32 μmol/kg). After 12 h, blood was collected from the retro-orbital sinus under ketamine/xylazine anesthesia. Whole blood (10 μL) was added to 190 μL of ACK red blood cell lysis buffer, the mixture was incubated at ambient temperature for 3-5 min […], and the white blood cells were recovered by centrifugation. Nucleated cells (Hoechst33342-positive) were counted using a hemocytometer to obtain the white blood cell count. Separately, 50 μL of whole blood was added to 1 mL of ACK red blood cell lysis buffer and incubated for 3-5 min at RT. Cells were washed with 2% fetal calf serum (FCS, Atlanta Biologicals (Flowery Branch, Ga.) in PBS with 0.05% NaN3 (Sigma Aldrich (Milwaukee, Wis.)) and red blood cell lysis was repeated. Tubes were decanted and resuspended in 100 μL of 10% FCS in PBS with 0.05% NaN3 and directly conjugated antibodies against B220, CD4, or CD8 (all from Biolegend, San Diego, Calif.) for 30 min on ice. Cells were analyzed on a BD LSR II flow cytometer; the analysis was restricted to live cells (DAPI-negative).
Avoided bradycardia and lymphopenia in vivo by FTY-k-PEG. […]

FL5.12/p190-Luc cells = test: In vivo bioluminescence imaging, BCR-Abl-driven leukemogenesis model; settings: 32 μmol/kg daily i.p., day 6, Balb/c mice, p<0.01
Procedure: In vivo bioluminescence imaging. In an immunocompetent syngeneic model, 6-7 weeks old Balb/c female mice were intravenously injected with Ph+FL5.12/p190/Luc cells (1.0×10^5 cells per mouse) in the tail vein. After 5 days, the mice received daily i.p. injections of fingolimod, FTY-k-PEG, FTY-PEG (all at a dose of 32 μmol/kg) or PBS for 5 days (n=5). Mice were placed under anesthesia using isoflurane (Patterson Veterinary, Greeley, Colo.) and interperitoneally injected with 120 mg/kg of synthetic firefly luciferin (Promega, Madison, Wis.) in PBS at a concentration of 20 mg/mL immediately prior to bioluminescence imaging with an IVIS Lumina system (Caliper Life Sciences, Hopkinton, Mass.) for 4 min. Mice were under anesthesia for the entire duration of imaging and bioluminescence signal intensities in mice were quantified using Living Image 3.2 software associated with the imaging system.
Preserved anti-leukemic effect of FTY-k-PEG in vivo. To assess the anti-leukemic effects of FTY-k-PEG in vivo while eliminating bradycardia and immunosuppressive activity, a BCR-Abl-driven leukemogenesis model in which fingolimod is effectively was used. […] The leukemic expansion of FL5.12/p190-Luc cells was assessed by i.p. administration of synthetic firefly luciferin (120 mg/kg) and subsequent bioluminescence imaging (see FIG. 12B-D). […]

[2] = DNAge (epigenetic aging clock) analysis; type: in vivo; settings: healthy BALB/c mice, 32 μmol/kg daily i.p., blood two days post-treatment
Procedure: DNAge® (epigenetic aging clock) analysis. Blood samples (100 μL) were collected in triplicate from healthy female BALB/c mice treated as described above. Upon immediate preservation in DNA/RNA Shield™ (Zymo Research, Irvine, Calif.), genomic DNA was purified using Quick-DNA Plus Kit (Zymo Research) as instructed by the manufacturer. Sample library preparation and data analysis for mouse DNAge® (epigenetics aging clock) were performed by service provider (Zymo Research). Briefly, genomic DNA (200 ng) was bisulfite-converted using EZ DNA Methylation_Lightning™ Kit (Zymo Research). Bisulfite-converted DNA libraries for targeted bisulfite sequencing platform, called SWARM® (Simplified Whole-panel Amplification Reaction Method), were sequenced on a HiSeq 1500 sequencer for >1,000× coverage. Sequence reads were identified using Illumina base calling software (San Diego, Calif.) and aligned to the reference genome using Bismark, an aligner optimized for bisulfite sequence data and methylation calling. The methylation level of each sampled cytosine was estimated as the number of reads reporting a C, divided by the total number of reads reporting a C or T. DNA methylation levels of >500 age-related CpG loci were used for age prediction using Zymo Research's proprietary […] DNAge® algorithms: […]

[3] = Water solubility of FTY prodrugs; type: physicochemical; settings: for water solubility: qualitative
Description: Design and synthesis of FTY-k-PEG. Acetals (ketals) were chosen for their structural versatility, facile synthesis, and tunable cleavability under mildly acidic conditions. The endosomal pH of ˜5.0 is an excellent intracellular trigger for drug release from acid-labile drug conjugates. Initial synthetic methodology utilized 2-methoxypropene to generate methyl ketal-functionalized fingolimod (mkFTY) (see FIG. 2). […] To retain the ketal moiety while increasing solubility of the prodrug, N-Fmoc piperidone was used to generate a cyclic ketal in kFTY (7) (see FIG. 3), eliminating the hydrophobic methyl groups and incorporating a secondary amine as a functional handle for further conjugation. The ketal formation was achieved using azeotropic distillation by which constant removal of water efficiently drives the reaction to completion. […] To further increase water solubility, kFTY was conjugated to succinimidyl carboxyl methyl ester polyethylene glycol (SCM-PEG 5 k) prior to trifluoroacetamide (TFA)-deprotection to produce FTY-k-PEG (8). FTY-k-PEG was analyzed by MALDI-TOF to confirm PEGylation and TFA-deprotection (see FIG. 4). […] Other macromolecules may be used for conjugation, and a plethora of stimuli-responsive linkers may be explored to further enhance the specificity and safety of an FTY prodrug. The acid-cleavable ketal linkage can be replaced by other moieties responsive to intrinsic environmental stimuli (redox, pH, etc.), external stimuli (heat, ultrasound, photo-irradiation, electrochemical, magnetic, etc.), or specific biological processes (enzymatic cleavage, ion chelation, etc.), depending the molecular structure of a drug and the stimuli to be utilized for target indication. In addition, a variety of macromolecules can also be used in lieu of PEG, including polysaccharides (i.e., hyaluronic acids), peptides, and various synthetic polymers for improved water-solubility, extended circulation, avoided premature activation, nanoparticle formulation, theranostic applications, combating resistance, and specific targeting. […]

[4] = system: nutrient transporter associated protein 4F2hc; test: Nutrient transporter expression (surface 4F2hc, flow cytometry); type: cell-based, murine; settings: FL5.12 cells, 3 h treatment, compared to fingolimod
Procedure: Cell culture. Murine IL-3-dependent proB-cell lymphoid FL5.12 cells and FL5.12/BCR-Abl p190 cells were obtained by gift. FL5.12/p190 cells were transduced to express firefly luciferase by lentiviral vectors purchased from Capital Bioscience (Gaithersberg, Md.). FL5.12/p190 and luciferase-expressing FL5.12/p190 cells (FL5.12/p190/Luc cells) were maintained at 250,000-800,000 cells/mL in RPMI 1640 media containing 10% (v/v) FBS and 1% (v/v) streptomycin-penicillin. FL5.12 cells were cultured in the same media supplemented with 5 ng/mL IL3. All cells were cultured at 37° C. with 5% CO2 and 100% humidity.
Nutrient transporter expression. Surface 4F2hc expression was measured using phycoerythrin (PE)-conjugated rat anti-mouse 4F2hc antibody (BD Pharmingen, San Diego, Calif.); analysis by flow cytomery was restricted to viable cells. PE-conjugated mouse IgG1, k (BD Pharmingen) was used as an isotype control. Cells were analyzed on a BD LSR II flow cytometer (BD Biosciences, San Jose, Calif.) and with FlowJo software (Treestar, Ashland, Oreg.).
To confirm active drug was released selectively upon acid-hydrolysis, drugs were incubated in buffers of pH 7.4 and pH 5.0 prior to incubation with the cells (see FIG. 8). Fingolimod was pre-incubated in the same buffers to rule out the possibility that the buffers would affect drug's activity or contribute to cell apoptosis. […]

With `CCCCCCCCc1ccc(CCC(N)(CO)CO)cc1` [fingolimod, Fingolimod] the “reduction of heart rate” value (C57BL/6 mice) was 50%, the reduction of lymphocytes [1] was roughly 60% and the “average bioluminescence signal lower than that of PBS” value (FL5.12/p190-Luc cells) was 64%. For the same molecule, the epigenetic age [2] was “significant increase in epigenetic age”.
For `CCCCCCCCc1ccc(CCC2(N)COC3(CCNCC3)OC2)cc1` [kFTY], the “concentration up to which readily soluble in water” value [3] was no more than 10000 µM and the water solubility [3] was “increased water solubility compared to mkFTY”.
With `CCCCCCCCc1ccc(CCC2(N)COC(C)(C)OC2)cc1` [mkFTY] the “down-regulation of surface 4F2hc expression” value [4] was “nearly identical efficacy to fingolimod” and the water solubility [3] was “loss of water solubility”.

Reference: US11696904B2, “Prodrug for therapeutic applications” (The Regents of the University of California, priority 2020, dated 2023)
